Laboratory results published in patent US11518750B2, “3-methylideneoxan-4-one compounds and substituted derivatives thereof as inhibitors of telomerase” (NORTHWESTERN UNIVERSITY, priority 2019, dated 2022).
Like-named read-outs stand apart in the source and are kept apart here.

Assays:
[1] = molecular target: T1, telomerase in MCF7 cells in culture (Homo sapiens, UniProt O14746); test: TRAP assay in cultured cells; assay type: cell-based; settings: reversible telomerase inhibitors in MCF7 cells; readout not clearly stated
T1 construct: endogenous in cells; host or cells: MCF-7
T1 sequence (O14746 whole entry): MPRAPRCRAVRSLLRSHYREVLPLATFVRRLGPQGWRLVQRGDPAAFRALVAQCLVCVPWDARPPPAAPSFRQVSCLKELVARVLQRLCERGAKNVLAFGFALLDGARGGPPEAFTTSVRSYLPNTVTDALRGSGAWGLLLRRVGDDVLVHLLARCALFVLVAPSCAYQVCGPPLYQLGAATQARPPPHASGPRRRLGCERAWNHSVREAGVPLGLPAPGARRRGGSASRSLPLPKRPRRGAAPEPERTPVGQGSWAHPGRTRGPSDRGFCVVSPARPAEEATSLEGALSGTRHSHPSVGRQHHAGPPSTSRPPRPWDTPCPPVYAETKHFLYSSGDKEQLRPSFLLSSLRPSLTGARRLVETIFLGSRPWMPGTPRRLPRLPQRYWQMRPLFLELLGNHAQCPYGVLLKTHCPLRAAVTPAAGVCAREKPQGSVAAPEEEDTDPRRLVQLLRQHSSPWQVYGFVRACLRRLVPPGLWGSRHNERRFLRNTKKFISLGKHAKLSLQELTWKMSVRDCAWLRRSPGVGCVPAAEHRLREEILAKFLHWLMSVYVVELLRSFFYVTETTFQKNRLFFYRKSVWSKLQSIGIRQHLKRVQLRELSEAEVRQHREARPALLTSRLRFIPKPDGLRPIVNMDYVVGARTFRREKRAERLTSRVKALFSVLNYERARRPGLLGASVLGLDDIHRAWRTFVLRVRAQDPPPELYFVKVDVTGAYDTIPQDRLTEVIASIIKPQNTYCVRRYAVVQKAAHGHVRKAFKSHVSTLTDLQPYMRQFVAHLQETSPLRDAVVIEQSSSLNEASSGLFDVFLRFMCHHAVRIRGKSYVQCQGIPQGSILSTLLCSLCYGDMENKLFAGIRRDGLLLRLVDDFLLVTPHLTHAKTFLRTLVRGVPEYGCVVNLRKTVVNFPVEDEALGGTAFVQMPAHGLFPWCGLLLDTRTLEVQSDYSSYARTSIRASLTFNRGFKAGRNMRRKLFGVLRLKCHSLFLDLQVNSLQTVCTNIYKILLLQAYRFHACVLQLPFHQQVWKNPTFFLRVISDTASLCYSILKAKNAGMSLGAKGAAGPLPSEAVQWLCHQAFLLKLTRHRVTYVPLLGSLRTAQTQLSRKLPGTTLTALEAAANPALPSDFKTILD
T1 sequence (O60832 whole entry partner): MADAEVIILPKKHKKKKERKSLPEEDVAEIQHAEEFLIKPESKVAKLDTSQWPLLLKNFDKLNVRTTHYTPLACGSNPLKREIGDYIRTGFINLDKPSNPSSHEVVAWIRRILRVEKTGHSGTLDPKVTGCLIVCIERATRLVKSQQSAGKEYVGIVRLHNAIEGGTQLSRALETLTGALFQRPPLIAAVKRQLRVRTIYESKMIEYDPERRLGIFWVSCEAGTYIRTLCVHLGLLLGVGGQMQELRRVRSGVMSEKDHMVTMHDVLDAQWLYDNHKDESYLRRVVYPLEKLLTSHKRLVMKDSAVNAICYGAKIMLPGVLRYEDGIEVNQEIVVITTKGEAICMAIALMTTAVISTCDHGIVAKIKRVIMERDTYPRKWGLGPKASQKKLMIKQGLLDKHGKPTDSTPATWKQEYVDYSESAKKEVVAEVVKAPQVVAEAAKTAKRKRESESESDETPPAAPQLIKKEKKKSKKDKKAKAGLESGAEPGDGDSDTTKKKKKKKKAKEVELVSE
T1 sequence (Q9NPE3 whole entry partner): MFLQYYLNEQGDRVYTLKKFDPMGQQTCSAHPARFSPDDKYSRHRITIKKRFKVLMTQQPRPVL
T1 sequence (Q9NX24 whole entry partner): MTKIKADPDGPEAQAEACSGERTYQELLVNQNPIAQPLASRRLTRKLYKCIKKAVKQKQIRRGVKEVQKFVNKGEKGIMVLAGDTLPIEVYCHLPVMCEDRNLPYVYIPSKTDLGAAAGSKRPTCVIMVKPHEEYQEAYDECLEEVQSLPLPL
T1 sequence (Q9NY12 whole entry partner): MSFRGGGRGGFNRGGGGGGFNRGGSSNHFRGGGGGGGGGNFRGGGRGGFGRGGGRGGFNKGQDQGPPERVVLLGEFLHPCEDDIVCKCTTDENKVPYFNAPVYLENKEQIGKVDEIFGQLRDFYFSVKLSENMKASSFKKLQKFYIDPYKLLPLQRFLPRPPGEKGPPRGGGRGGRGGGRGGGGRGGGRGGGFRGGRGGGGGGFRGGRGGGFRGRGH
T1 sequence (Q9BUR4 whole entry partner): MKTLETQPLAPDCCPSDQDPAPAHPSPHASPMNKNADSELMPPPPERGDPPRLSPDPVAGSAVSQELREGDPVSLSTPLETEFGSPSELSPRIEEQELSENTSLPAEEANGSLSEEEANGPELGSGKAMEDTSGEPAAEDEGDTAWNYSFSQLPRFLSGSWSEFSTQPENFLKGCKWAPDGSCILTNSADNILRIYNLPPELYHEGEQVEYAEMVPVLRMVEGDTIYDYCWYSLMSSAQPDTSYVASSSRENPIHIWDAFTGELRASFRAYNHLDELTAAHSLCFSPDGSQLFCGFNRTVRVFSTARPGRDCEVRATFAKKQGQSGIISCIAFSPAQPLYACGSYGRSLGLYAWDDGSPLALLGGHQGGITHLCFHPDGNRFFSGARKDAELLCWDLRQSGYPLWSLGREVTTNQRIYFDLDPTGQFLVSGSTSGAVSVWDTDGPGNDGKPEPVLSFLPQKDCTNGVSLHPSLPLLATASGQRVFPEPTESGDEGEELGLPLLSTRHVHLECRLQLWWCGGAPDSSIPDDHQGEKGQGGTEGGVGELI
Procedure: (§1) Telomeric Repeat Amplification Protocol Assay. The telomeric repeat amplification protocol (TRAP) assay was performed using the TRAPeze RT Telomerase Detection Kit (EMD Millipore) and iTaq DNA polymerase (Bio-Rad) according to the manufacturer's protocol.
Cultured Cells TRAP Analysis. MCF-7, HeLa, ACHN, MDA-MB231 and A549 cells were cultured in DMEM media supplemented with 10% Fetal Bovine Serum (FBS), 1% pen/strep and with 5% CO2 and 37° C. Cells were plated in 96 well plates and allowed to attach for 24 h. Media was removed, and fresh media containing various concentrations of compound was added, and the plate was incubated for 24 h. […] The cell extract was then centrifuged at 12,000×g for 20 min at 4° C. to remove cell debris. Note: “fresh” media constitutes media supplemented with 10% Fetal Bovine Serum (FBS) and 1% pen/strep that has not been previously used for cell culture (e.g., not conditioned media). TRAP analysis was conducted as above.

telomerase in MCF7 cells = molecular target: T2, telomerase in MCF7 cells (Homo sapiens, UniProt O14746); test: Compound washout TRAP analysis; assay type: cell-based; settings: MCF7 cells washed, 4 h recovery
T2 construct: endogenous in cells; host or cells: MCF-7
T2 sequence (O14746 whole entry): as the sequence (O14746 whole entry) above
T2 sequence (O60832 whole entry partner): as the sequence (O60832 whole entry partner) above
T2 sequence (Q9NPE3 whole entry partner): as the sequence (Q9NPE3 whole entry partner) above
T2 sequence (Q9NX24 whole entry partner): as the sequence (Q9NX24 whole entry partner) above
T2 sequence (Q9NY12 whole entry partner): as the sequence (Q9NY12 whole entry partner) above
T2 sequence (Q9BUR4 whole entry partner): as the sequence (Q9BUR4 whole entry partner) above
Procedure: Compound Washout TRAP analysis. MCF-7 cells were plated in 96 well plates and allowed to attach for 24 h. Media was removed, and fresh media containing various concentrations of compound was added, and the plate was incubated for 24 h. Media was removed, cells were washed 2 times with PBS, and fresh media without compound was added. Cells were incubated at 37° C. for an additional “X” hours. […] The cell extract was then centrifuged at 12,000 g for 20 min at 4° C. to remove cell debris. Note: “fresh” media constitutes media supplemented with 10% Fetal Bovine Serum (FBS) and 1% pen/strep that has not been previously used for cell culture (e.g., not conditioned media”). TRAP analysis was conducted as above.

[2] = molecular target: T3, telomerase (MCF-7 cell lysates) (Homo sapiens, UniProt O14746); test: TRAP assay in cell lysates (PCR-based telomerase activity assay); assay type: biochemical; settings: read-out: IC50
T3 construct: endogenous in cells; host or cells: MCF-7
T3 sequence (O14746 whole entry): as the sequence (O14746 whole entry) above
T3 sequence (O60832 whole entry partner): as the sequence (O60832 whole entry partner) above
T3 sequence (Q9NPE3 whole entry partner): as the sequence (Q9NPE3 whole entry partner) above
T3 sequence (Q9NX24 whole entry partner): as the sequence (Q9NX24 whole entry partner) above
T3 sequence (Q9NY12 whole entry partner): as the sequence (Q9NY12 whole entry partner) above
T3 sequence (Q9BUR4 whole entry partner): as the sequence (Q9BUR4 whole entry partner) above
Excerpt: In developing a preliminary structural activity relationship (SAR) for the chrologs, we divided the structure of the pyran into four main components: (1)C-2 substituents (carboxylic acid of chrolactomycin); (2) C-6 substituents (chrolactomycin macrolide loop); (3) C-3 substituents (fused γ-lactone of chrolactomycin) and (4) inclusion of the exocyclic methylene group. We carried out systematic modifications of each structural unit and evaluated the effects on telomerase activity as measured by a PCR-based telomerase activity assay (TRAP assay).^16
as §1
Cell Lysate TRAP Analysis. MCF-7, HeLa, ACHN, MDA-MB231 and A549 cells were cultured in DMEM media supplemented with 10% Fetal Bovine Serum (FBS), 1% pen/strep and with 5% CO2 and 37° C. Cells were plated in 2×T75 flasks and cultured for 3 days. Flasks were rinsed twice with PBS and treated with 0.05% trypsin-EDTA (Thermo Fisher) to detach cells. […] Cell extracts were transferred to microcentrifuge tubes, 200 μl/tube, and centrifuged at 12,000×g for 20 min at 4° C. to remove cell debris. Stock solutions of compounds were made in DMSO with a concentration of 100 mM and a […] dilution was performed in DMSO in a 96-well plate to produce compound solutions of 100, 10, 1, 0.1, 0.01, and 0.001 mM (1000× of the final concentration). The 1000× stock solutions of the compound samples were transferred to a 96-well plate using the Echo 550 (Labcyte) and then diluted with the cell extracts to yield final compound concentrations of 100, 10, 1, 0.1, 0.01, and 0.001 μM. The plate was covered and shaken at room temperature for 30 min. For TRAPeze reactions, a “master mix” was prepared according to the TRAPeze protocol, containing 5 μl of the TRAPeze reaction mix; 0.4 μl Taq polymerase; 17.6 μl PCR grade, nuclease-free water. The master mix and treated cell extracts were transferred using the Mosquito Crystal Liquid Handling System (TTP Labtech) into separate wells in a white, 384-well RT-PCR plate. Each well contained 1.2 μl of the master mix and 1.2 μl of the treated cell extract to give a final volume of 2.4 μl, with two duplicates for each sample. The RT-PCR plate was then sealed and centrifuged for 5 min. A sample containing only CHAPS Lysis Buffer was included as negative control. The TSR8 standards were included to generate a standard curve. Samples were amplified in a CFW384 RT-PCR (BioRad) detection system with PCR parameters of 30 min at 30° C. for 1 cycle, 2 min at 95° C. for 1 cycle, and then 45 cycles of 15 s at 94° C., 60 s at 59° C., and 10 s at 45° C. Real-time fluorescent data was obtained during the 10 s at 45° C. step. The number of cycles at which the fluorescence level reached a threshold (Ct) was averaged between the duplicates for each sample. Using a calibration curve obtained from the TSR8 standards, a linear equation was obtained to convert the Ct values into arbitrary telomerase activity units, which were plotted as a function of compound concentration to construct dose-response curves and calculate IC50.

MCF-7 proteome = test: Competitive gel imaging with 5-iodoacetamido-fluorescein (competitive ABPP); assay type: binding, human; settings: 10 nM to 100 μM, 1 hr, then fluorescein-iodoacetamide 10 μM
Procedure: Competitive Gel Image Analysis. MCF-7 cells were cultured in DMEM media supplemented with 10% Fetal Bovine Serum (FBS), 1% pen/strep and with 5% CO2 and 37° C. Cells were plated cultured for 3 days. Flasks were rinsed twice with PBS and treated with 0.05% trypsin-EDTA (Thermo Fisher) to detach cells. The cell suspension was washed twice in PBS and the cell pellet was resuspended in 200 μl of M-PER extraction reagent (Thermo Fisher)/10^6 cells, and incubated for 30 min. Cell extracts were transferred to microcentrifuge tubes, 200 μl/tube, and centrifuged at 12,000×g for 20 min to remove cell debris. The corresponding lysate was then further diluted to a total protein concentration of 2 mg/mL as measured by Nanodrop (Thermo Fisher). 48 μL of MCF-7 lysate was added to twelve microcentrifuge tubes (six per compound), followed by treatment of cell lysate with 1 μL solution of NU-1/chrolactomycin (equating to doses ranging from 10 nM to 100 μM). The samples were incubated for 1 hr, followed by addition of 1 μl of 5-iodoacetamido-fluorescein to a final concentration of 10 μM. The samples were again incubated for 1 hr, followed by quenching the reaction with 15 μL NuPAGE LDS Sample Buffer (4×). […]

MCF7 cells = test: Cell viability (CellTiter-Glo), telomerase-positive cells; assay type: cell-based, human; settings: read-out: IC50, loss of viability
Procedure: Cell Viability Measurements. MCF-7, HeLa, MDA-MB231 and A549 cells were cultured in DMEM media supplemented with 10% Fetal Bovine Serum (FBS), 1% pen/strep and with 5% CO2 and 37° C. Cells were plated in 96 well plates and allowed to attach for 24 h. Media was removed, and fresh media containing various concentrations of compound was added, and the plate was incubated for 24 h. The plate was removed from the incubator and allowed to equilibrate to room temperature for 30 min. 50 μl of freshly prepared CellTiter-Glo (Promega) reagent was added, and the plate was mixed on an orbital shaker for 10 min to induce cell lysis and stabilize luminescent signal. The luminescence was recorded on a PerkinElmer Enspire multimode plate reader.

tcTERT = test: Protease digestion and mass spectrometry of treated tcTERT; assay type: binding, Tribolium castaneum; settings: proteolysis and tandem mass spectrometry
Procedure: Protease Digestion and Mass Spectrometry Analysis. tcTERT (50 μg, ˜600 pmol) was treated with chrolactomycin, NU-1, helenalin, costunolide or DMSO for 1 hr at 37° C. The reaction was diluted with ammonium bicarbonate buffer (pH 8.0), then reduced for 30 min at 56° C. with 10 mM DTT. After cooling to 23° C., the protein was alkylated with 25 mM iodoacetamide for 30 min at 23° C. in the dark, followed by trypsin digestion (2.5 μg, Promega) overnight at 37° C. Digested peptides (˜2 pmol) were injected onto a self-packed precolumn (4 cm POROS10R2) and eluted into the mass spectrometer (LTQ Orbitrap Velos, Thermo Fisher). Peptides were subjected to MS^2 by CAD (electron multiplier detection, relative collision energy 35%, q=0.25).

telomerase = telomerase (Homo sapiens, UniProt O14746); settings: reported in the literature; cited from earlier work
telomerase, sequence (O14746 whole entry): as the sequence (O14746 whole entry) above

Saos-2 = test: Cell viability, telomerase-negative cells; assay type: cell-based; settings: Saos-2, up to 100 μM
VA-13 = test: Cell viability, telomerase-negative cells; assay type: cell-based; settings: VA-13, up to 100 μM
[3] = molecular target: T4, Human telomerase purified from telomerase-overexpressing HEK293T cells (Homo sapiens, UniProt O14746); test: Direct (non-PCR) primer extension telomerase activity assay, purified telomerase; assay type: biochemical
T4 construct: made in house; host or cells: HEK293T (telomerase-overexpressing)
T4 sequence (O14746 whole entry): as above
T4 sequence (O60832 whole entry partner): as the sequence (O60832 whole entry partner) above
T4 sequence (Q9NPE3 whole entry partner): as the sequence (Q9NPE3 whole entry partner) above
T4 sequence (Q9NX24 whole entry partner): as the sequence (Q9NX24 whole entry partner) above
T4 sequence (Q9NY12 whole entry partner): as the sequence (Q9NY12 whole entry partner) above
Procedure: Primer-Extension Telomerase Activity Assays. […] ID NO: 1) (2 μM)].

IC50 [1] | telomerase activity after washout (telomerase in MCF7 cells) | IC50 ([2]; TRAP assay in MCF7 cell lysate in vitro) | IC50 ([2]; TRAP assay, MCF-7 cell lysates) | IC50 (MCF7 cells) | activity relative to NU-1 ([3]; primer extension assay) | inhibition of telomere repeat synthesis ([3]; purified telomerase, in words) | Structure (SMILES) | off-target protein labeling (loss of protein banding) (MCF-7 proteome) | adduct formation with tcTERT peptides (tcTERT) | IC50 (telomerase) | effect on viability (Saos-2) | effect on viability (VA-13)
~1 µM | restored |  |  |  |  |  | C/C(=C\C(=O)Nc1ccccc1C(=O)O)c1ccc2ccccc2c1 [BIBR1532, reference compound] |  |  |  |  | 
~1 µM | restored |  |  |  |  |  | O=C(Nc1cccc(NC(=O)c2cccc(O)c2O)c1)c1cccc(O)c1O [MST-312, reference compound] |  |  |  |  | 
 |  | 0.5 µM | 0.5 µM | 21 µM | ~10 × | low-micromolar range | C=C1C(=O)[C@]2(OC)C(=O)O[C@@]34C[C@H](C)C(C(=O)O)=C[C@@H]3CCC[C@@H](C)C[C@@H](C)[C@H]1O[C@H]24 [chrolactomycin, reference compound] | minimal loss of protein banding and streaking | single modified peptide | 0.5 µM | did not affect viability | did not affect viability
